Reference: PMC7256847 (Polish Journal of Microbiology, 2019)
Read-outs that look alike come from different tables or passages of the source. Each block holds one molecule with its values, some of them ahead of it.

Columns and labels:
alanine racemase (SiAlr) [1] = target: T1, alanine racemase (SiAlr) (Streptococcus iniae, UniProt A0A3L8GG59); assay: enzyme inhibition assay with purified recombinant SiAlr; format: biochemical
T1 sequence (A0A3L8GG59 1-368): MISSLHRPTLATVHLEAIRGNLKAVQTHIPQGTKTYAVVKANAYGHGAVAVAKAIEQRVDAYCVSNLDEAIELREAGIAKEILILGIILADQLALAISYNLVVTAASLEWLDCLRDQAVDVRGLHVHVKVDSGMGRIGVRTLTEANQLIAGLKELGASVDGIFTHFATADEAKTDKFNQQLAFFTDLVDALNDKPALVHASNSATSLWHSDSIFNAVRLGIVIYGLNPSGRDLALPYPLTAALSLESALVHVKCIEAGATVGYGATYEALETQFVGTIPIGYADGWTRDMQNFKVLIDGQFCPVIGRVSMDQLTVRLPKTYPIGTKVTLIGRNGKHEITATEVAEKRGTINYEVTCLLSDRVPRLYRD

alanine racemase (SiAlr) [2] = target: T1, alanine racemase (SiAlr); assay: as above; format: biochemical; remark: listed apart in the source
[3] = substrate: C[C@@H](N)C(=O)O; assay: HPLC racemization kinetics; format: biochemical, Streptococcus iniae; details: pyridoxal […]'-phosphate (PLP)
[4] = substrate: C[C@H](N)C(=O)O; assay: HPLC racemization kinetics; format: biochemical, Streptococcus iniae; details: pyridoxal […]'-phosphate (PLP)

- IC50 (alanine racemase (SiAlr) [1]): 3.69 µM
Molecule: N[C@@H]1CON=C1O [D-cycloserine]

- IC50 (alanine racemase (SiAlr) [2]): 12.3 µM
Molecule: O=C(O)Cc1cc(O)ccc1O [homogentisic acid]

- IC50 (alanine racemase (SiAlr) [2]): 11.4 µM
Molecule: Oc1ccc(O)cc1 [hydroquinone]

B1: alanine racemase (SiAlr) (Streptococcus iniae) (protein)
chain: MISSLHRPTLATVHLEAIRGNLKAVQTHIPQGTKTYAVVKANAYGHGAVAVAKAIEQRVDAYCVSNLDEAIELREAGIAKEILILGIILADQLALAISYNLVVTAASLEWLDCLRDQAVDVRGLHVHVKVDSGMGRIGVRTLTEANQLIAGLKELGASVDGIFTHFATADEAKTDKFNQQLAFFTDLVDALNDKPALVHASNSATSLWHSDSIFNAVRLGIVIYGLNPSGRDLALPYPLTAALSLESALVHVKCIEAGATVGYGATYEALETQFVGTIPIGYADGWTRDMQNFKVLIDGQFCPVIGRVSMDQLTVRLPKTYPIGTKVTLIGRNGKHEITATEVAEKRGTINYEVTCLLSDRVPRLYRD
- Km [3]: 14.36 mM
- Km [4]: 33.11 mM
